In patent US10231939B2, “Hydroxytyrosol and oleuropein compositions for induction of DNA damage, cell death and LSD1 inhibition” (priority 2012, dated 2019):

Key:
Experiment in all cases: Cell proliferation (Cell Titer-Blue Assay)
[1] = system: HL-60 cells; format: cell-based, human; conditions: for EC50: Homo sapiens
Description: Human acute myeloid leukemic HL-60 cells (ATCC No. CCL-240) obtained from the ATCC were maintained in Dulbecco's modified Eagle's medium (DMEM, Gibco®, Invitrogen, Carlsbad, USA) supplemented with 20% fetal bovine serum (FBS, In Vitro Technologies, Victoria, Australia), antibody/antimycotic containing 100 U/mL Penicillin, 100 μg/mL Streptomycin, 0.25 μg/mL Amphotericin B (Invitrogen, Carlsbad, Calif., USA) and 1× GlutaMAX (Gibco, Invitrogen). Cells were cultured in suspension in a humidified atmosphere of 5% (v/v) CO2 at 37° C. and were maintained in exponential growth phase. For maintenance, cells were passaged twice per week and seeded at ratios 1:10. Cell proliferation was determined using the Cell Titer-Blue Assay kit (Promega, Madison, Wis., USA). Cells were seeded at 10,000 cells per well in black flat bottom 96-well plates (Nalge Nunc, Penfield, N.Y., USA) and treated with serial doses of hydroxytyrosol (0-3200 μM) and oleuropein (0-12800 μM) for 24, 48 and 120 hours at 37° C., 5% (v/v) CO2. Following incubation with the test samples, Cell-Titer Blue reagent (20 μl per 100 μL) was added to each well and mixed gently for 5 sec prior to 4 hr incubation at 37° C. in a humidified atmosphere of 5% CO2. Fluorescence intensity (λex=550 nm and λem=615 nm) was determined using a Perkin Elmer Victor3 multilabel microplate counter (PerkinElmer, Waltham, Mass., USA). Data were expressed as % relative cell viability compared to untreated cells after correction of subtracting the media control fluorescence reading.

[2] = system: U937 cells; format: cell-based, human; conditions: for EC50: Homo sapiens, U-937
From the text: (§1) Human chronic myelogenous leukemia K562 cells (ATCC No. CCL-243), human large B-lymphocyte non-Hodgkin's lymphoma LCL cells, human leukemic monocyte lymphoma U937 cells (ATCC No. CRL-1593.2), human prostate adenocarcinoma PC3 (ATCC No. CRL-1435) and human gastric carcinoma SNU-16 cells (ATCC No. CRL-5974) were maintained in complete-Royal Park Memorial Institute (RPMI) 1640 medium supplemented with 20 mmol/L HEPES (pH 7.4; GIBCO-Invitrogen, Carlsbad, Calif., USA), 10% (v/v) fetal bovine serum (FBS), 2 mmol/L L-glutamine (GIBCO-Invitrogen), and 80 units gentamicin (GIBCO-Invitrogen). Cells were cultured in suspension in a humidified atmosphere of 5% (v/v) CO2 at 37° C. and were maintained in exponential growth phase. For maintenance, cells were passaged twice per week and seeded at ratios 1:10. Cell proliferation was determined using the Cell Titer-Blue Assay kit (Promega, Madison, Wis., USA). Cells were seeded at 10,000 cells per well in black flat bottom 96-well plates (Nalge Nunc, Penfield, N.Y., USA) and treated with serial doses of hydroxytyrosol (0-3200 μM) and oleuropein (0-12800 μM) for 24, 48 and 120 hours at 37° C., 5% (v/v) CO2. Following incubation with the test samples, Cell-Titer Blue reagent (20 μl per 100 μL) was added to each well and mixed gently for 5 sec prior to 4 hr incubation at 37° C. in a humidified atmosphere of 5% CO2. Fluorescence intensity (λex=550 nm and λem=615 nm) was determined using a Perkin Elmer Victor3 multilabel microplate counter (PerkinElmer, Waltham, Mass., USA). Data were expressed as % relative cell viability compared to untreated cells after correction of subtracting the media control fluorescence reading.

[3] = system: PC3 cells; format: cell-based, human; conditions: for EC50: Homo sapiens, PC-3
From the text: as §1

[4] = system: K562 cells; format: cell-based, human; conditions: for EC50: Homo sapiens
From the text: as §1

[5] = system: R100 cells; format: cell-based, human; conditions: for EC50: Homo sapiens
Description: as §1, with “Human acute T lymphoblast leukemic CEM-CCRF” for “Human chronic myelogenous leukemia K562”, “cells (ATTC NO. CCL-119), obtained from the ATCC” for “cells (ATCC No. CCL-243), human large B-lymphocyte non-Hodgkin's lymphoma LCL cells, human leukemic monocyte lymphoma U937 cells (ATCC No. CRL-1593.2), human prostate adenocarcinoma PC3 (ATCC No. CRL-1435) and human gastric carcinoma SNU-16 cells (ATCC No. CRL-5974)”, “in a Modified Eagle's Medium (α-MEM)” for “in complete-Royal Park Memorial Institute (RPMI) 1640 medium”, “with 2” for “with 20”, “(v/v) FBS,” for “(v/v) fetal bovine serum (FBS),”, “(GIBCO-Invitrogen). Similarly, CEM-CCRF—P-glycoprotein (PGP)—over expressing, vinblastine derivative—R100 cells, expressing multi-drug resistance (MDR) were grown in a-MEM supplemented with 2 mmol/L HEPES (pH 7.4), 10% (v/v) FBS, 2 mmol/L L-glutamine, 80 units gentamicin and 100 ng/ml vinblastine. R100 cells were cultured in a-MEM/FBS/gentamicin media without vinblastine for 7 days prior to use in experiments.” for “(GIBCO-Invitrogen).”

[6] = system: CEM-CCRF cells; format: cell-based, human; conditions: for EC50: Homo sapiens
Description: as §1, with “Human acute T lymphoblast leukemic CEM-CCRF” for “Human chronic myelogenous leukemia K562”, “cells (ATTC NO. CCL-119), obtained from the ATCC” for “cells (ATCC No. CCL-243), human large B-lymphocyte non-Hodgkin's lymphoma LCL cells, human leukemic monocyte lymphoma U937 cells (ATCC No. CRL-1593.2), human prostate adenocarcinoma PC3 (ATCC No. CRL-1435) and human gastric carcinoma SNU-16 cells (ATCC No. CRL-5974)”, “in a Modified Eagle's Medium (α-MEM)” for “in complete-Royal Park Memorial Institute (RPMI) 1640 medium”, “with 2” for “with 20”, “(v/v) FBS,” for “(v/v) fetal bovine serum (FBS),”, “(GIBCO-Invitrogen). Similarly, CEM-CCRF—P-glycoprotein (PGP)—over expressing, vinblastine derivative—R100 cells, expressing multi-drug resistance (MDR) were grown in a-MEM supplemented with 2 mmol/L HEPES (pH 7.4), 10% (v/v) FBS, 2 mmol/L L-glutamine, 80 units gentamicin and 100 ng/ml vinblastine. R100 cells were cultured in a-MEM/FBS/gentamicin media without vinblastine for 7 days prior to use in experiments.” for “(GIBCO-Invitrogen).”

[7] = system: SNU-16 cells; format: cell-based; conditions: Homo sapiens
From the text: as §1

SMILES: OCCc1ccc(O)c(O)c1 [HT, 4-(2-hydroxyethyl)-1,2-benzenediol]
- EC10 (concentration required to reduce the cell viability of the population to 10%) ([1]; HL-60, 120 hr): 29 µM
- EC50 ([1]; HL-60, 24 hr): 632 µM
- EC50 ([1]; HL-60, 48 hr): 100 µM
- EC50 ([1]; HL-60, 120 hr): 13 µM
- EC50 ([2]; U937, 24 hr): 563 µM
- EC50 ([2]; U937, 48 hr): 500 µM
- EC50 ([2]; U937, 120 hr): 250 µM
- EC10 (concentration required to reduce the cell viability of the population to 10%) ([2]; U937, 120 hr): 370 µM
- EC50 ([3]; PC3, 24 hr): 2120 µM
- EC50 ([3]; PC3, 48 hr): 320 µM
- EC50 ([3]; PC3, 120 hr): 215 µM
- EC10 (concentration required to reduce the cell viability of the population to 10%) ([3]; PC3, 120 hr): 630 µM
- EC50 ([4]; K562, 24 hr): 150 µM
- EC50 ([4]; K562, 48 hr): 150 µM
- EC50 ([4]; K562, 120 hr): 91 µM
- EC10 (concentration required to reduce the cell viability of the population to 10%) ([4]; K562, 120 hr): 176 µM
- EC50 ([5]; R100, 24 hr): 190 µM
- EC50 ([5]; R100, 48 hr): 100 µM
- EC50 ([5]; R100, 120 hr): 40 µM
- EC10 (concentration required to reduce the cell viability of the population to 10%) ([5]; R100, 120 hr): 86 µM
- EC10 (concentration required to reduce the cell viability of the population to 10%) ([6]; 120 hr): 80 µM
- EC50 ([6]; 24 hr): 121 µM
- EC50 ([6]; 48 hr): 100 µM
- EC50 ([6]; 120 hr): 42 µM
- EC50 ([7]; SNU-16, 24 hr): 1100 µM
- EC50 ([7]; SNU-16, 48 hr): 80 µM

SMILES: C/C=C1/[C@H](O[C@@H]2O[C@H](CO)[C@@H](O)[C@H](O)[C@H]2O)OC=C(C(=O)OC)[C@H]1CC(=O)OCCc1ccc(O)c(O)c1 [OL, oleuropein]
- EC10 (concentration required to reduce the cell viability of the population to 10%) ([1]; HL-60, 120 hr): 230 µM
- EC50 ([1]; HL-60, 24 hr): 717 µM
- EC50 ([1]; HL-60, 48 hr): 900 µM
- EC50 ([1]; HL-60, 120 hr): 100 µM
- EC50 ([2]; U937, 24 hr): 730 µM
- EC50 ([2]; U937, 48 hr): 2800 µM
- EC50 ([2]; U937, 120 hr): 1250 µM
- EC10 (concentration required to reduce the cell viability of the population to 10%) ([2]; U937, 120 hr): 2600 µM
- EC50 ([3]; PC3, 24 hr): 2290 µM
- EC50 ([3]; PC3, 48 hr): 3800 µM
- EC50 ([3]; PC3, 120 hr): 2500 µM
- EC10 (concentration required to reduce the cell viability of the population to 10%) ([3]; PC3, 120 hr): 4600 µM
- EC50 ([4]; K562, 24 hr): 337 µM
- EC50 ([4]; K562, 48 hr): 950 µM
- EC50 ([4]; K562, 120 hr): 585 µM
- EC10 (concentration required to reduce the cell viability of the population to 10%) ([4]; K562, 120 hr): 756 µM
- EC50 ([5]; R100, 24 hr): 320 µM
- EC50 ([5]; R100, 48 hr): 1000 µM
- EC50 ([5]; R100, 120 hr): 250 µM
- EC10 (concentration required to reduce the cell viability of the population to 10%) ([5]; R100, 120 hr): 530 µM
- EC10 (concentration required to reduce the cell viability of the population to 10%) ([6]; 120 hr): 700 µM
- EC50 ([6]; 24 hr): 437 µM
- EC50 ([6]; 48 hr): 1800 µM
- EC50 ([6]; 120 hr): 325 µM
- EC50 ([7]; SNU-16, 24 hr): 2820 µM
- EC50 ([7]; SNU-16, 48 hr): 800 µM
